# Results taken from paper PMC3009740 (PLoS ONE, 2010).
# Residue numbers refer to the chain shown, from its start. Like-named read-outs stand apart in the source and are kept apart here.
# Key:
# [1] = target: T1, human M1 muscarinic acetylcholine receptor (Homo sapiens, UniProt P11229); test: cell-based
# T1 sequence (P11229 1-460): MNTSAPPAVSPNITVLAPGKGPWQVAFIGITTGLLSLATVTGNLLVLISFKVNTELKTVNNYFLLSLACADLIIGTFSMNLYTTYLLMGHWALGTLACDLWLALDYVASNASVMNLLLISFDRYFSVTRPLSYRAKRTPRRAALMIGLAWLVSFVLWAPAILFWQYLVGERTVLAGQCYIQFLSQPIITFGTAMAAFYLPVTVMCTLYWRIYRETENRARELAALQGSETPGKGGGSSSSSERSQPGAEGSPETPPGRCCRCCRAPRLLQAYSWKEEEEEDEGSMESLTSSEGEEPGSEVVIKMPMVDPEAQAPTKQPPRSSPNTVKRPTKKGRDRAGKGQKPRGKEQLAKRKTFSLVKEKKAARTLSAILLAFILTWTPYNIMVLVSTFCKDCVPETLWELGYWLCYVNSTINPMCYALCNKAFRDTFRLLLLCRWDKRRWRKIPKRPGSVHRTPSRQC
# Protocol: (§1) Labeled cells were harvested by trypsinization, centrifuged, and washed three times in HEPES buffer to remove unincorporated myo-[^3H]inositol. Labeled cells were distributed to assay tubes (500,000 cells/tube), and allowed to incubate for 15 min at 37°C. […] In all cases, the reaction was allowed to proceed in the presence of 10 mM LiCl for 1 h at 37°C after the addition of agonist before being stopped with chloroform/methanol (2∶1) and centrifuged (450×g; 15 min).
# Alternatively, cells were grown in 24-well plates and loaded with myo-[^3H]inositol as described above. […] In all cases, the reaction was stopped with 0.3 M HClO4, neutralized with 0.15 M K2CO3, and samples were centrifuged (1500×g; 15 min).
# (§2) For all experiments, [^14C]inositol-1-phosphate was added to each sample as an internal recovery standard. Total inositol phosphates were separated by ion exchange chromatography (AG1-X8 resin). The amount of radioactivity (disintegrations per minute) in each sample was determined by liquid scintillation spectrometry and adjusted for ^14C recovery.
# (§3) In functional assays of PI hydrolysis, raw data were corrected for ^14C recovery to account for individual column differences in efficiency. Individual concentration-response curve data were fitted to a four-parameter logistic function using Prism to obtain estimates of EC50 (half-effective concentration) and Emax.
# [2] = target: T2, rat M1 mutant^123 muscarinic acetylcholine receptor (Rattus norvegicus, UniProt P08482); conditions: mutant^123 cells stimulated with agonist (data not shown)
# T2 sequence (P08482 1-460): T1 sequence (P11229 1-460) with A5V, T254S, P309S, R320K, A337G, I413V
# Protocol: as §1, §2, §3
# [3] = target: T3, rat M1 wild-type muscarinic acetylcholine receptor (Rattus norvegicus, UniProt P08482); conditions: naïve CHO rM1 cells
# T3 sequence (P08482 1-460): T1 sequence (P11229 1-460) with A5V, T254S, P309S, R320K, A337G, I413V
# Protocol: as §1, §2, §3
# CHO hM1 cells = test: Protein content (method of Bradford) of CHO hM1 cells after pretreatment; assay type: cell-based, Chinese hamster
# Source text: In order to account for these variances, the method of Bradford was used to quantify changes in protein content in CHO hM1 cells. […] This is in contrast to the complete inhibition of binding observed prior to prolonged waiting.
# [4] = target: T3, rat M1 wild-type muscarinic acetylcholine receptor
# [5] = target: T2, rat M1 mutant^123 muscarinic acetylcholine receptor
# [6] = target: T3, rat M1 wild-type muscarinic acetylcholine receptor; conditions: washout, control 2200±90
# [7] = target: T2, rat M1 mutant^123 muscarinic acetylcholine receptor; conditions: washout, control 2700±300
# [8] = 1 h pretreatment, washout, 23 h wait
structure (smiles),measurement,setting,value
O=C1CCCN1CC#CCN1CCCC1 [oxotremorine],"Emax, maximal accumulation of inositol phosphates",[1],10000±800 dpm
same,increase in the EC50 of agonist-stimulated PI hydrolysis,[1],32 fold
same,EC50,[1]; pEC50 of PI hydrolysis,200 nM
"CCCCCCOc1nsnc1C1=CCCN(C)C1 [xanomeline, 3-[3-hexyloxy-1,2,5-thiadiazo-4-yl]-1,2,5,6-tetrahydro-1-methylpyridine]",PI response,[2],did not produce a significant PI response
same,"Emax, maximal response",[3],18000±5500 dpm
same,maximal decrease in protein content,"CHO hM1 cells; 1-h pretreatment followed by washing and prolonged waiting, at 10 µM xanomeline",32±2%
same,maximal decrease in protein content,"CHO hM1 cells; 24-h pretreatment, at 10 µM xanomeline",65±7%
same,"Imax, maximal percentage inhibition of [3H]NMS binding","[4]; 1 h pretreatment, washout",95±0.5%
same,"Imax, maximal percentage inhibition of [3H]NMS binding",[4]; [8],99±2.3%
same,percentage of high-affinity binding sites,[4]; [8],74±1.1%
same,"Imax, maximal percentage inhibition of [3H]NMS binding","[4]; 24 h pretreatment, washout",97±0.5%
same,percentage of high-affinity binding sites,"[4]; 24 h pretreatment, washout",47±7.7%
same,"Imax, maximal percentage inhibition of [3H]NMS binding",[4]; Control: naïve cells,99±0.6%
same,"Imax, maximal percentage inhibition of [3H]NMS binding","[5]; 1 h pretreatment, washout",96±0.7%
same,"Imax, maximal percentage inhibition of [3H]NMS binding",[5]; [8],60±7.4 %
same,"Imax, maximal percentage inhibition of [3H]NMS binding","[5]; 24 h pretreatment, washout",90±2.9%
same,"Imax, maximal percentage inhibition of [3H]NMS binding",[5]; Control: naïve cells,99±0.5%
same,"Bmax, maximal cell-surface receptor density","[6]; 3 µM xanomeline 1 h, 23 h wait","1100±150 dpm/100,000 cells"
same,"Bmax, maximal cell-surface receptor density",[6]; 3 µM xanomeline 1 h,"2600±430 dpm/100,000 cells"
same,"Bmax, maximal cell-surface receptor density",[6]; 3 µM xanomeline 24 h,"1300±150 dpm/100,000 cells"
same,"Bmax, maximal cell-surface receptor density","[7]; 3 µM xanomeline 1 h, 23 h wait","3400±610 dpm/100,000 cells"
same,"Bmax, maximal cell-surface receptor density",[7]; 3 µM xanomeline 1 h,"3000±380 dpm/100,000 cells"
same,"Bmax, maximal cell-surface receptor density",[7]; 3 µM xanomeline 24 h,"3600±320 dpm/100,000 cells"
C[N+](C)(C)CCOC(N)=O [carbachol],maximal decrease in protein content,"CHO hM1 cells; 24-h pretreatment, at 10 mM carbachol",26±6.6%
